Assay results: patent publication US8501750B2, “Heterocyclic compound and use thereof” (Takeda Pharmaceutical Company Limited, priority 2007, dated 2013)
Counter-ions that a name gives are not always drawn. Like-named read-outs stand apart in the source and are kept apart here.

Assays:
PPARγ = PPARγ (Homo sapiens (Human), UniProt P37231); experiment: PPARγ activating action (luciferase reporter in PPARγ:RXRα:4ERPP/CHO-K1 cells); assay type: cell-based; conditions: CHO-K1, 24 h, read-out: PPARγ activating action (activation % (1 μM))
Procedure: Then the medium was removed from the 96-well half area white plate, 45 μl of Ham's F12 medium containing 0.1% fatty acid-free bovine serum albumin (BSA) and 5 μl of test compound were added, and the cells were cultured in a CO2 gas incubator at 37° C. for 1 day. The medium was removed and 20 μl of PicaGene 7.5 [manufactured by Dainippon Ink and Chemicals Corporation, Japan] diluted 2-fold with HBSS (HANKS' BALANCED SALT SOLUTION) [manufactured by BIO WHITTAKER, USA] was added. After stirring, the luciferase activity was determined using 1420 ARVO Multilabel Counter [manufactured by PerkinElmer, USA]. […] A CHO-K1 cell cultured in a 150 cm^2 cell culture flask [manufactured by Corning Costar Corporation, USA] containing Ham's F12 medium [manufactured by INVITROGEN, USA] supplemented with 10% fetal bovine serum [manufactured by INVITROGEN, USA] was scraped by treating with 0.5 g/L trypsin-0.2 g/L EDTA (ethylenediaminetetraacetic acid) [manufactured by Life Technologies, Inc., USA], and then the cell was washed with PBS (Phosphate-buffered saline) [manufactured by INVITROGEN, USA], centrifuged (1000 rpm, 5 minutes) and suspended in PBS. Subsequently, DNA was introduced into the cell under the conditions shown below using GENE PULSER [manufactured by Bio-Rad Laboratories, USA]. […] Subsequently, the cell was transferred into a F12 medium containing 10% fetal bovine serum and cultured for 24 hours, and then the cell was scraped again and centrifuged, and then suspended in Ham's F12 medium containing 10% fetal bovine serum supplemented with 500 μg/ml of Geneticin [manufactured by INVITROGEN, USA] and 250 μg/ml of Zeocin [manufactured by INVITROGEN, USA]. The obtained suspension was diluted to the density of 10^4 cells/ml and inoculated in a 96-well plate [manufactured by Corning Costar Corporation, USA], which was cultured in a CO2 gas incubator at 37° C., whereby obtaining a Geneticin- and Zeocin-resistant transformant.

AT1 receptor = AT1 receptor (Homo sapiens (Human), UniProt P30556); experiment: AT1 receptor binding inhibitory action
[1] = test compound 1 μM, luciferase activity relative to control compound X (1 μM) = 100%, non-administration group = 0%

PPARγ, sequence (P37231 29-505): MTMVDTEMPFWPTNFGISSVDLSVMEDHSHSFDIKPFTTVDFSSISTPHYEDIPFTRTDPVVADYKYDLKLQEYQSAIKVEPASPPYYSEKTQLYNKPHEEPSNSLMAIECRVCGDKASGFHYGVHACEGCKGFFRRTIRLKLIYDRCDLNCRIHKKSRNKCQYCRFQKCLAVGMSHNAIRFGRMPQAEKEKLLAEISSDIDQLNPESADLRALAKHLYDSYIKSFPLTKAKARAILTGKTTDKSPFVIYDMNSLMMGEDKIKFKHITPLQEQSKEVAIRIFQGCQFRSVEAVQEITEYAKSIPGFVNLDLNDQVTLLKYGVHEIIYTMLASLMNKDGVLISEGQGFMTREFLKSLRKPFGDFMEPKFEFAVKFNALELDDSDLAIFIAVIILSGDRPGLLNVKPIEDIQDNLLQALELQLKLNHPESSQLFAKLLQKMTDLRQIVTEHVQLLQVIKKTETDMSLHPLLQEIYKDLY
PPARγ, sequence (P19793 whole entry partner): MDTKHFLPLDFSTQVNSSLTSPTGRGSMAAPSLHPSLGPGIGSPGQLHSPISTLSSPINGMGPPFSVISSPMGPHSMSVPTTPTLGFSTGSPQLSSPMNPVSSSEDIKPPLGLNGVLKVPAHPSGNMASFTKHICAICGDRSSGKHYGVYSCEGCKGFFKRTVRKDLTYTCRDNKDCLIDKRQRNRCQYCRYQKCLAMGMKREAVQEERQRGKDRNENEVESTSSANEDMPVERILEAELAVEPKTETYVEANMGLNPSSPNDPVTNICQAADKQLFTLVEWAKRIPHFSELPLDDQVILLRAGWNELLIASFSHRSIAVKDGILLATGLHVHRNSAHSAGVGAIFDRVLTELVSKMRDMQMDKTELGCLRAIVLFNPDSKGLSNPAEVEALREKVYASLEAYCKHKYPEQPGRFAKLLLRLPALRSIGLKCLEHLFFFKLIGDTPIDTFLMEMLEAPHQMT
AT1 receptor, sequence (P30556 whole entry): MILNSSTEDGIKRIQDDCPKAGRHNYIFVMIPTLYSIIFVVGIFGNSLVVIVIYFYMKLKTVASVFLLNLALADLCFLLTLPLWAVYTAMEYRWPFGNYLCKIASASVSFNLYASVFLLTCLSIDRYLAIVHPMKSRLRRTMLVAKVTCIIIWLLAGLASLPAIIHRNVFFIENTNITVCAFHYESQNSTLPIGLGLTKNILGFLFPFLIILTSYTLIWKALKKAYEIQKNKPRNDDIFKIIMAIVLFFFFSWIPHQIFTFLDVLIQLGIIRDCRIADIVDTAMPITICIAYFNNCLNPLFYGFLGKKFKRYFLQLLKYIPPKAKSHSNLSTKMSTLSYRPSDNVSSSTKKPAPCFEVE

SMILES	activation at 1 µM (PPARγ; [1]) [%]	IC50 (AT1 receptor) [nM]	activation at 1 µM (PPARγ) [%]
CCc1cc2c(=O)n(C/C(=N/OC)C(C)(C)C)c(=O)n(Cc3ccc(-c4ccccc4-c4noc(=O)[nH]4)cc3)c2s1 [Ex. 142, 6-ethyl-3-[2-(methoxyimino)-3,3-dimethylbutyl]-1-{[2′-(5-oxo-4,5-dihydro-1,2,4-oxadiazol-3-yl)biphenyl-4-yl]methyl}thieno[2,3-d]pyrimidine-2,4(1H,3H)-dione]	38	1.5	–
COc1cc(F)ccc1C(=O)Cn1c(=O)c2cc(C3CC3)sc2n(Cc2ccc(-c3ccccc3-c3noc(=O)[nH]3)cc2F)c1=O [Ex. 129, 6-cyclopropyl-3-[2-(4-fluoro-2-methoxyphenyl)-2-oxoethyl]-1-{[3-fluoro-2′-(5-oxo-4,5-dihydro-1,2,4-oxadiazol-3-yl)biphenyl-4-yl]methyl}thieno[2,3-d]pyrimidine-2,4(1H,3H)-dione]	61	1.6	–
CCc1cc2c(=O)n(CC(OC(C)=O)c3ccc(OC)cc3)c(=O)n(Cc3ccc(-c4ccccc4-c4noc(=O)[nH]4)cc3F)c2s1 (centres unmarked) [Ex. 153, 2-[6-ethyl-1-{[3-fluoro-2′-(5-oxo-4,5-dihydro-1,2,4-oxadiazol-3-yl)biphenyl-4-yl]methyl}-2,4-dioxo-1,4-dihydrothieno[2,3-d]pyrimidin-3(2H)-yl]-1-(4-methoxyphenyl)ethyl acetate]	39	1.3	–
CCc1cc2c(=O)n(CC(O)C(C)(C)C)c(=O)n(Cc3ccc(-c4ccccc4-c4noc(=O)[nH]4)cc3)c2s1 (centres unmarked) [Ex. 149, 6-ethyl-3-(2-hydroxy-3,3-dimethylbutyl)-1-{[2′-(5-oxo-4,5-dihydro-1,2,4-oxadiazol-3-yl)biphenyl-4-yl]methyl}thieno[2,3-d]pyrimidine-2,4(1H,3H)-dione]	50	1.8	–
CCc1cc2c(=O)n(CC(=O)c3ccc(OC)cc3)c(=O)n(Cc3ccc(-c4ccccc4-c4noc(O)n4)cc3OC)c2s1 [Ex. 192, 6-ethyl-1-{[3-methoxy-2′-(5-oxo-4,5-dihydro-1,2,4-oxadiazol-3-yl)biphenyl-4-yl]methyl}-3-[2-(4-methoxyphenyl)-2-oxoethyl]thieno[2,3-d]pyrimidine-2,4(1H,3H)-dione potassium salt]	–	2.3	49
CCc1cc2c(=O)n(CC(=O)c3ccc(OC)cc3F)c(=O)n(Cc3ccc(-c4ccccc4-c4noc(=O)[nH]4)cc3)c2s1 [Ex. 73, 6-ethyl-3-[2-(2-fluoro-4-methoxyphenyl)-2-oxoethyl]-1-{[2′-(5-oxo-4,5-dihydro-1,2,4-oxadiazol-3-yl)biphenyl-4-yl]methyl}thieno[2,3-d]pyrimidine-2,4(1H,3H)-dione]	35	1.5	–
CCc1cc2c(=O)n(CC(=O)c3nc4ccccc4n3C)c(=O)n(Cc3ccc(-c4ccccc4-c4noc(=O)[nH]4)cc3)c2s1 [Ex. 140, 6-ethyl-3-[2-(1-methyl-1H-benzoimidazol-2-yl)-2-oxoethyl]-1-{[2′-(5-oxo-4,5-dihydro-1,2,4-oxadiazol-3-yl)biphenyl-4-yl]methyl}thieno[2,3-d]pyrimidine-2,4(1H,3H)-dione]	26	1.7	–
CCc1cc2c(=O)n(CC(=O)c3ccc(Cl)cc3)c(=O)n(Cc3ccc(-c4ccccc4-c4noc(=O)[nH]4)cc3)c2s1 [Ex. 121, 3-[2-(4-chlorophenyl)-2-oxoethyl]-6-ethyl-1-{[2′-(5-oxo-4,5-dihydro-1,2,4-oxadiazol-3-yl)biphenyl-4-yl]methyl}thieno[2,3-d]pyrimidine-2,4(1H,3H)-dione]	28	1.7	–
O=C(Cn1c(=O)c2cc(CC(F)(F)F)sc2n(Cc2ccc(-c3ccccc3-c3noc(=O)[nH]3)cc2)c1=O)C1CCCCC1 [Ex. 136, 3-(2-cyclohexyl-2-oxoethyl)-1-{[2′-(5-oxo-4,5-dihydro-1,2,4-oxadiazol-3-yl)biphenyl-4-yl]methyl}-6-(2,2,2-trifluoroethyl)thieno[2,3-d]pyrimidine-2,4(1H,3H)-dione]	36	1.5	–

The next lines start with results.

activation at 1 µM (PPARγ; [1]) [%]	IC50 (AT1 receptor) [nM]	SMILES	activation at 1 µM (PPARγ) [%]
55	1.2	CCc1cc2c(=O)n(-c3ccc4c(c3)CC(C)(C)O4)c(=O)n(Cc3ccc(-c4ccccc4-c4noc(=O)[nH]4)cc3F)c2s1 [Ex. 181, 3-(2,2-dimethyl-2,3-dihydro-1-benzofuran-5-yl)-6-ethyl-1-{[3-fluoro-2′-(5-oxo-4,5-dihydro-1,2,4-oxadiazol-3-yl)biphenyl-4-yl]methyl}thieno[2,3-d]pyrimidine-2,4(1H,3H)-dione]	–
51	1.9	CCc1cc2c(=O)n(CC(C)(C)C)c(=O)n(Cc3ccc(-c4ccccc4-c4noc(=O)[nH]4)cc3)c2s1 [Ex. 154, 3-(2,2-dimethylpropyl)-6-ethyl-1-{[2′-(5-oxo-4,5-dihydro-1,2,4-oxadiazol-3-yl)biphenyl-4-yl]methyl}thieno[2,3-d]pyrimidine-2,4(1H,3H)-dione]	–
28	1.8	CCc1cc2c(=O)n(CC(=O)c3ccc(OC)cc3)c(=O)n(Cc3ccc(-c4cc(F)ccc4-c4noc(=O)[nH]4)cc3)c2s1 [Ex. 203, 6-ethyl-1-{[5′-fluoro-2′-(5-oxo-4,5-dihydro-1,2,4-oxadiazol-3-yl)biphenyl-4-yl]methyl}-3-[2-(4-methoxyphenyl)-2-oxoethyl]thieno[2,3-d]pyrimidine-2,4(1H,3H)-dione]	–
67	1.4	CCc1cc2c(=O)n(CC(=O)c3ccc(OC)cc3)c(=O)n(Cc3c(F)cc(-c4ccccc4-c4noc(=O)[nH]4)cc3F)c2s1 [Ex. 197, 1-{[3,5-difluoro-2′-(5-oxo-4,5-dihydro-1,2,4-oxadiazol-3-yl)biphenyl-4-yl]methyl}-6-ethyl-3-[2-(4-methoxyphenyl)-2-oxoethyl]thieno[2,3-d]pyrimidine-2,4(1H,3H)-dione]	–
52	1.2	CC(C)(C)C(=O)Cn1c(=O)c2cc(C3CC3)sc2n(Cc2ccc(-c3ccccc3-c3noc(=O)[nH]3)cc2)c1=O [Ex. 186, 6-cyclopropyl-3-(3,3-dimethyl-2-oxobutyl)-1-{[2′-(5-oxo-4,5-dihydro-1,2,4-oxadiazol-3-yl)biphenyl-4-yl]methyl}thieno[2,3-d]pyrimidine-2,4(1H,3H)-dione]	–
31	1.6	CCO/N=C(/Cn1c(=O)c2cc(CC)sc2n(Cc2ccc(-c3ccccc3-c3noc(=O)[nH]3)cc2)c1=O)c1ccc(OC)cc1 [Ex. 210, 3-[2-(ethoxyimino)-2-(4-methoxyphenyl)ethyl]-6-ethyl-1-{[2′-(5-oxo-4,5-dihydro-1,2,4-oxadiazol-3-yl)biphenyl-4-yl]methyl}thieno[2,3-d]pyrimidine-2,4(1H,3H)-dione]	–
36	1.5	CCc1cc2c(=O)n(CC(=O)c3ccc(OC)cc3)c(=O)n(Cc3ccc(-c4ccc(F)cc4-c4noc(=O)[nH]4)cc3)c2s1 [Ex. 198, 6-ethyl-1-{[4′-fluoro-2′-(5-oxo-4,5-dihydro-1,2,4-oxadiazol-3-yl)biphenyl-4-yl]methyl}-3-[2-(4-methoxyphenyl)-2-oxoethyl]thieno[2,3-d]pyrimidine-2,4(1H,3H)-dione]	–
35	1.4	CCc1cc2c(=O)n(CC(=O)c3ccc(OC)c(F)c3)c(=O)n(Cc3ccc(-c4ccccc4-c4noc(=O)[nH]4)cc3F)c2s1 [Ex. 157, 6-ethyl-3-[2-(3-fluoro-4-methoxyphenyl)-2-oxoethyl]-1-{[3-fluoro-2′-(5-oxo-4,5-dihydro-1,2,4-oxadiazol-3-yl)biphenyl-4-yl]methyl}thieno[2,3-d]pyrimidine-2,4(1H,3H)-dione]	–
65	0.34	CCc1cc2c(=O)n(CCc3ccc(F)cc3)c(=O)n(Cc3ccc(-c4ccccc4-c4noc(=O)[nH]4)cc3)c2s1 [Example 56, 6-ethyl-3-[2-(4-fluorophenyl)ethyl]-1-{[2′-(5-oxo-4,5-dihydro-1,2,4-oxadiazol-3-yl)biphenyl-4-yl]methyl}thieno[2,3-d]pyrimidine-2,4(1H,3H)-dione]	–
49	2	CCc1cc2c(=O)n(CC(=NOC(C)C)c3ccc(OC)cc3)c(=O)n(Cc3ccc(-c4ccccc4-c4noc(=O)[nH]4)cc3)c2s1 [Ex. 213, 6-ethyl-3-[2-(isopropoxyimino)-2-(4-methoxyphenyl)ethyl]-1-{[2′-(5-oxo-4,5-dihydro-1,2,4-oxadiazol-3-yl)biphenyl-4-yl]methyl}thieno[2,3-d]pyrimidine-2,4(1H,3H)-dione]	–
